# Measured values taken from patent US9974870B2, “Compositions and methods for treatment and imaging using nanoparticles” (Washington University, priority 2014, dated 2018).
# Like-named read-outs stand apart in the source and are kept apart here. Non-standard residues stand in square brackets, D forms with d. Residues, ends and D or L forms follow the SMILES beside them. Primed or numbered codes have the meaning given here. *: point of attachment. DOTA = O=C(O)CN1CCN(CC(=O)O)CCN(CC(=O)*)CCN(CC(=O)O)CC1; DTPA′ = chelating agent complexing 111In or 64Cu; Tyr(3-I) = N[C@@H](Cc1ccc(O)c(I)c1)C(=O)O; Orn = NCCC[C@H](N)C(=O)O; Ahx = NCCCCCC(=O)O
# Key:
# MDA-MB-231 cells = assay: Cell uptake and efflux studies; type: cell-based, human; details: for cell uptake: untreated MDA-MB-231 cells, 2 h postincubation at 37° C.
# Description: The goals of the cell-uptake studies were to (1) assess any changes in the structure-activity relationship resulting from the modular and responsive probe design and (2) evaluate the retention of the iodine containing hydrophobic peptide moiety in treated and untreated cells. Metastatic human breast MDA-MB-231 cells were used to evaluate whether the amino acid sequence modulation would enhance internalization, and how the probe would respond (intracellular) postchemotherapy. In the untreated cells, there was a higher uptake (P<0.001) of [^125I]LS734 (3.6±0.5) than [^125I]LS370 (0.3±0.3) at 2 h postincubation at 37° C. (FIG. 22A). […] The amount of iodinated fraction released by the untreated and treated cells at 3 h (post 2 h incubation and removal of excess activity) was used as a measure of the efflux activity.
# MDA-MB-231 cells used for the uptake and efflux assay were grown on 24-well tissue culture plates until they were 80-90% confluent with […] cells per well. […] The experimental treatment group of cells was treated with 10 ng/ml of SN-38 (7-ethyl-10-hydroxy-camptothecin, Sigma Aldrich) for 24 h. Then, the SN-38 was removed, and the second chemotherapeutic drug, UCN-01 (Sigma Aldrich), was introduced at a concentration of […] in 0.1% BSA per well. At this point, respective radioactive solutions ([^125I]LS734 or [^125I]LS370, 0.02 μg per well; specific activities: [^125I]LS370-40×10^6 MBq/mmol; [^125I]LS734-10×10^6 MBq/mmol) were added to treated and control groups. The solutions were added drop-wise into the wells and gently mixed to ensure homogeneous distribution. The final volume per well was 240 μl, and the plates were incubated at 37° C. (5% CO2) for 2 h. After incubation, the supernatant (fraction 1) was collected, and the cells were washed twice with 250 μl of cold serum-free media. […] Fraction 2 represents the cell efflux, which is the amount of radioactivity released from cells after the 2 h uptake. […] The radioactivity in each fraction was measured in a well counter (Packard II gamma counter).
# [1] = Tissue biodistribution in tumor-bearing Balb/c mice; type: in vivo; details: female, Balb/c, mouse, iv, 0.185 MBq, total radioactivity, 1 h post injection; for tissue uptake at 1 h: thyroid
# Procedure: (§1) The structure-activity relationship was evaluated in vivo by performing a tissue biodistribution study in naive (FIG. 26) and tumor-bearing Balb/c mice (FIG. 23). […] The tumor/blood ratios for both [^125I]LS370 and [^125I]LS734 was 0.6±0.03. The tumor/muscle ratios were similar as well but higher than the tumor/blood ratios, [^125I]LS734 (2.2±0.1) and [^125I]LS370 (2.1±0.3). Thyroid uptake was 73±21 and 115±73 for [^125I]LS370 and [^125I]LS734, respectively.
# (§2) All animal studies were conducted according to guidelines on the humane care and use of laboratory animals under protocols approved by the Animal Studies Committee at Washington University School of Medicine. For tissue biodistribution studies, syngeneic breast tumor models were prepared via bilateral orthotopic implantation of luciferase-transfected 4T1 mouse mammary carcinoma cells (4T1luc, 5×10^5 cells per tumor) in the mammary fat pads of 6-week-old, female Balb/c mice (NCI, Frederick, Md., USA). Studies were conducted when the tumors reached about 3 mm maximum diameter (−10 days). Healthy female Balb/c mice (n=4 per time point) were anesthetized with 1-2% vaporized isoflurane and injected via tail vein with 0.185 MBq of [^125I]LS370 or [^125I]LS734 (specific activities: [^125I]LS370-40×10^6 MBq/mmol; [^125I]LS734-10×10^6 MBq/mmol). At 1 h post injection, mice were killed. Organs of interest were removed and blotted dry. The radioactivity was measured in a gamma counter (Packard II gamma counter). Diluted standard doses (1:100) were prepared and counted along with the samples. Data points were corrected for radioactive decay. The percent injected dose per gram of tissue (% ID/g) was calculated.
# 4T1luc tumors = assay: as above; type: in vivo; details: at 1 h after tail vein injection
# Procedure: as §1, §2
# MMP9 [2] = biological target: T1, MMP9 (Homo sapiens, UniProt P14780); assay: In vitro MMP9 cleavage of ^111In from non-radioactive gold nanoparticle probe; type: biochemical
# T1 sequence (P14780 94-707, species assumed): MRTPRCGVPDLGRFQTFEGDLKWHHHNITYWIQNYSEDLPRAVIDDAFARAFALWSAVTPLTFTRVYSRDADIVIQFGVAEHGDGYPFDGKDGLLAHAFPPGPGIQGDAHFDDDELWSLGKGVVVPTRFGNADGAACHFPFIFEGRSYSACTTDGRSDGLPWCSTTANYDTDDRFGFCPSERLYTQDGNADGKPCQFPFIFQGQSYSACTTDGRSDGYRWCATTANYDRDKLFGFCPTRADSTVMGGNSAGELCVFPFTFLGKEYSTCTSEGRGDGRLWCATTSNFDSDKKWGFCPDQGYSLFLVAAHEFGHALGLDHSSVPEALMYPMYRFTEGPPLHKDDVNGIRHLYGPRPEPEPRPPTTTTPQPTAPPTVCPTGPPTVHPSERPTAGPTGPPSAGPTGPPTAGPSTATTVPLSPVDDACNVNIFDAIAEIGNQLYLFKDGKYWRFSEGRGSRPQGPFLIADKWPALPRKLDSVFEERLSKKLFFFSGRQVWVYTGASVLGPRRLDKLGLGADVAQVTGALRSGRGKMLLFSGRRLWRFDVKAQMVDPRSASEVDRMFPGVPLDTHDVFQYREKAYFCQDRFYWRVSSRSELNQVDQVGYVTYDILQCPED
# Procedure: (§3) To further validate the specificity of the activation, an identical experiment as the one just described was performed with an ^111In-labeled non-radioactive gold nanoparticle probe, similar to a radioactive nanoparticle previously reported. An initial in vitro validation was performed; when incubated with MMP9 for 48 hours, 48% ^111In was cleaved from the nanoparticle compared to only 16% without MMP9. With this singly-labeled probe, an alternative in vivo ratiometric imaging approach was performed (FIG. 18A). Rather than compare the ratio between two gamma energy channels, uptake intensity ratios between the lungs and kidneys or bladder were quantified. Importantly, clear distinctions were observed between the MMP9 and control groups. […] Differences were also observed 5 hours after injection (FIG. 18C), where the bladder/lung ratio remained elevated in the MMP9-incubated condition (0.19±0.15) compared to the control (0.03±0.003).
# The dual-radiolabeled nanocrystal suspension was separated into 50 μL samples containing 20 ng MMP9 and incubated at 37° C. for 9 hours (along with control that was incubated without MMP9). 50 μL (˜80 μCi ^199Au and 40 μCi ^111In) was then intratracheally injected into C57 Black6 mice and two-channel SPECT imaging was performed as described above. […]
# MMP9 [3] = biological target: T1, MMP9; assay: Organ ratiometric SPECT imaging (kidney/lung, bladder/lung) after MMP9 pre-incubation; type: in vivo, C57 Black6 mice
# Procedure: as §3
# The dual-radiolabeled nanocrystal suspension was separated into 50 μL samples containing 20 ng MMP9 and incubated at 37° C. for 9 hours (along with control that was incubated without MMP9). 50 μL (˜80 μCi ^199Au and 40 μCi ^111In) was then intratracheally injected into C57 Black6 mice and two-channel SPECT imaging was performed as described above. In another experiment, a similar protocol was performed with the non-radioactive gold NP core functionalized with an ^111In-labeled, MMP9-cleavable peptide. Briefly, 10 mL of 10 nm diameter gold nanoparticles (Sigma Aldrich) was centrifuged at 10 k g-force for 70 minutes, supernatant was removed, the pellet was resuspended in 1 mL of ultrapure water containing 2.2 mg mPEG-SH (MW=5000) and 1.0 mg pMMP9 peptide, and shaken overnight. Suspension was again centrifuged at 10 k g-force, supernatant removed, and the pellet was resuspended in 500 μL 0.1 M NH4OAc buffer (pH 5.5). Then 15 μL ^111InCl (5.23 mCi) was added and shaken at 45° C. for 90 minutes. Suspension was centrifuged at 10 k g-force for 90 minutes, supernatant removed, and the pellet containing 2.96 mCi was resuspended in 500 μL buffer. 50 μL aliquots with or without 10 ng MMP9 were prepared and shaken at 37° C. for 16 hours. 50 μL (˜230 μCi ^111In) was then intratracheally injected into C57 Black6 mice (n=4/group) and SPECT imaging was performed using the 245 keV channel immediately upon injection and 5 and 24 hours later.
# caspase-3 = biological target: T2, caspase-3 (Homo sapiens, UniProt P42574); assay: Caspase-3 mediated hydrolysis, enzyme kinetics by radio-HPLC; type: biochemical; details: caspase-3 290 pM, 37° C., pH 7.4
# T2 construct: purchased Cal Biochem
# T2 sequence (P42574 29-175 limits assumed): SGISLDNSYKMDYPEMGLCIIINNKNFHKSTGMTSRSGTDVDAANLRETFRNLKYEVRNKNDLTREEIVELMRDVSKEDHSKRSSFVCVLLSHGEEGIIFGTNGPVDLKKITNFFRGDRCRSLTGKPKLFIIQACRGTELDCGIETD
# T2 sequence (P42574 176-277 limits assumed): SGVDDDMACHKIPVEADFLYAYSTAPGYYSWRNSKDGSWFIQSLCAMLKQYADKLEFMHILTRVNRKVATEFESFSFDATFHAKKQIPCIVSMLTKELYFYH
# Procedure: However, the dimer readily converts back to single molecules under the high reducing conditions such as used to prepare the ^99mTc chelate. Kinetic analysis of caspase-3 activation with [^125I]LS370 using a radionuclide detector (radio-high-performance liquid chromatography) gave a KM and kcat of 15±3 1 μM and […], respectively.
# [^125I]LS370 was dissolved in caspase buffer {100 mM NaCl, 50 mM 4-(2-hydroxyethyl)-1-piperazineethanesulfonic acid, 10 mM DTT, 1 mM ethylenediaminetetraacetic acid, 10% glycerol, and 0.1% 3-[(3-cholamidopropyl) dimethylammonio]-1-propanesulfonate, pH 7.4} at concentrations varying from 2.5 to 20 μM. […] These solutions were allowed to react at 37° C. for 180 min and were sampled every 30 min. Substrate hydrolysis was monitored by radio-high-performance liquid chromatography (Vydac, C-18, 4.6×250 mm, 1 ml/m, A=H2O, 0.1% TFA, B=ACN, 0.1% TFA; 10-90% B, 30 min, linear gradient) of these time point samples. Comparison to a standard caspase-3 substrate (Ac-DEVD-pNA) and calculation of the enzyme kinetic parameters were carried out as previously described.
# MMP9 [4] = biological target: T1, MMP9; assay: In vitro MMP9 experiment with ^64Cu-labeled peptide-functionalized gold NPs; type: biochemical
# Procedure: Once surface-functionalized with the peptide and PEG, an experiment was performed in PBS in order to characterize the ability of MMP9 to cleave the peptide present on the nanoparticle surface. In this experiment, ^64Cu was chelated to DTPA on the peptide attached to the NP. The suspension was incubated with MMP9 for 1.5 hours and then the supernatant solution was separated from the NPs by centrifugal filtration. […] To further confirm the presence of the cleaved peptide, high performance liquid chromatography (HPLC) was performed on the supernatant solutions, and co-registered UV and radioactive peaks associated with the radiolabeled peptide fragment were observed (FIG. 6).
# 1 mL of peptide-functionalized gold NPs was centrifuged, supernatant decanted, and resuspended in 0.1 M NH4OAc. 110 μCi ^64Cu, provided by the Washington University Cyclotron Facility, was added to the NP pellet and shaken at 45° C. for 1 hour. Radiolabeled NPs were purified from nonchelated ^64Cu by centrifugation. Then NP suspensions were incubated with 20 ng MMP9 for 1.5 hours, after which 450 μL PBS was added and supernatant was purified from the NPs by centrifugation filtration using a 10 k MW filter. Supernatant and NP pellets were counted for radioactivity in a PerkinElmer 1480 Automatic Gamma Counter.
# [5] = MMP9-incubated probe, immediately upon injection
# [6] = control probe without MMP9, immediately upon injection
compound,measurement,setting,value
CC(=O)NCCCCCC(=O)N[C@@H](Cc1ccc(O)c(I)c1)C(=O)NCCCCCC(=O)N[C@@H](CC(=O)O)C(=O)N[C@@H](CCC(=O)O)C(=O)N[C@H](C(=O)N[C@@H](CC(=O)O)C(=O)NCC(=O)N[C@@H](CCCCN)C(=O)NCC(=O)N[C@@H](CS)C(N)=O)C(C)C [[^125I]LS370] (Ac-[Ahx][Tyr(3-I)][Ahx]DEVDGKGC-NH2),cell uptake,MDA-MB-231 cells,0.3±0.3
same,tissue to tissue ratio at 1 h,"[1]; 4T1luc tumor / blood, read-out: tumor/blood ratio",0.6 ± 0.03
same,tissue to tissue ratio at 1 h,"[1]; 4T1luc tumor / muscle, read-out: tumor/muscle ratio",2.1 ± 0.3
same,tissue uptake at 1 h,[1],73 ± 21 %ID/g
CC[C@H](C)[C@H](NC(=O)[C@H](C)NC(=O)[C@H](CC(C)C)NC(=O)[C@H](Cc1ccc(O)c(I)c1)NC(C)=O)C(=O)NCCCCCC(=O)N1CCC[C@H]1C(=O)N[C@@H](C)C(=O)N[C@@H](CC(=O)O)C(=O)N[C@@H](CCC(=O)O)C(=O)N[C@H](C(=O)N[C@@H](CC(=O)O)C(=O)NCC(=O)N[C@@H](CCCNC(=N)N)C(=O)N[C@@H](CCCNC(=N)N)C(=O)N[C@@H](CCCNC(=N)N)C(=O)N[C@@H](CCCN)C(=O)N[C@@H](CCCNC(=N)N)C(=O)N[C@@H](CCCNC(=N)N)C(=O)N[C@@H](CCCCN)C(=O)N[C@@H](CCCCN)C(=O)N[C@@H](CCCNC(=N)N)C(=O)N[C@@H](CCCCNC(=O)CN1CCN(CC(=O)O)CCN(CC(=O)O)CCN(CC(=O)O)CC1)C(N)=O)C(C)C [[^125I]LS734] (Ac-[Tyr(3-I)]LAI[Ahx]PADEVDGRRR[Orn]RRKKRK(DOTA)-NH2),efflux activity: iodinated fraction released by untreated versus treated cells,"MDA-MB-231 cells; at 3 h (post 2 h incubation and removal of excess activity), treatment SN-38 then UCN-01",higher amount of activity was released from untreated cells compared to treated cells
same,cell uptake,MDA-MB-231 cells,3.6±0.5
same,tissue uptake at 1 h,[1],115 ± 73 %ID/g
same,blood circulation,4T1luc tumors,circulated longer in blood as compared to [^125I]LS370
"^111In-labeled non-radioactive gold nanoparticle probe ({DTPA′}-GPLGVRGKGYG[Ahx]C-NH2; not fully specified (residue 13); printed as Gly-Pro-Leu-Gly-Val-Arg-Gly-Lys-Gly-Tyr-Gly-Ahx-Cys; also: 111In chelated by DTPA, Cys thiol anchored to gold nanoparticle)",^111In cleaved from the nanoparticle,MMP9 [2]; incubated with MMP9 for 48 hours,48%
same,^111In cleaved from the nanoparticle,MMP9 [2]; without MMP9,16%
same,bladder/lung uptake ratio,"MMP9 [3]; MMP9-incubated probe, 5 hours after injection",0.19±0.15
same,bladder/lung uptake ratio,MMP9 [3]; [5],0.56±0.24
same,kidney/lung uptake ratio,MMP9 [3]; [5],0.12±0.04
same,bladder/lung uptake ratio,"MMP9 [3]; control probe without MMP9, 5 hours after injection",0.03±0.003
same,bladder/lung uptake ratio,MMP9 [3]; [6],0.08±0.04
same,kidney/lung uptake ratio,MMP9 [3]; [6],0.01±0.004
"CC(=O)N[C@@H](CC(=O)O)C(=O)N[C@@H](CCC(=O)O)C(=O)N[C@H](C(=O)N[C@@H](CC(=O)O)C(=O)Nc1ccc([N+](=O)[O-])cc1)C(C)C [Ac-DEVD (SEQ ID NO:2)-pNA, Ac-DEVD-pNA]",Km,caspase-3,11 µM
same,kcat,caspase-3,2.4 M/s
^64Cu-labeled nanoparticles ({DTPA′}-GPLGVRGKGYG[Ahx]C-NH2; not fully specified (residue 13); also: DTPA chelates 64Cu),radioactivity observed in the supernatant after incubation with MMP9,"MMP9 [4]; […] incubation with MMP9, PBS, centrifugal filtration",23%
same,"radioactivity observed in the supernatant, control without MMP9","MMP9 [4]; […], without MMP9",< 5%
